The C3SDB collision cross section collection
Several values for one entry are separate records, joined by “and”; a condition that tells them apart may be missing. Equal entries are not always repeated.

Conditions: instrument: DT, single field, calibrated with Agilent tune mix (Agilent)

| Compound | collision cross section (N2) ([M-H]-) | collision cross section (N2) ([M+H]+) [Å²] | also measured |
| --- | --- | --- | --- |
| Nc1ccn(C2O[C@H](CO)[C@H]3OP(=O)(O)O[C@@H]23)c(=O)n1 (stereo partly drawn) [Cytidine 2',3'-cyclic phosphate] |  | 162.3 | collision cross section (N2) ([M+Na-2H]-): 161.98 Å² |
| CC(=O)N[C@H]1[C@H]([C@H](O)[C@H](O)CO)O[C@](OP(=O)(O)OC[C@H]2O[C@@H](n3ccc(N)nc3=O)[C@H](O)[C@@H]2O)(C(=O)O)C[C@@H]1O [Cytidine monophosphate N-acetylneuraminic acid] | 215.5 Å² |  | collision cross section (N2) ([M+Na]+): 220.7 Å² |
| OC[C@H]1OC(O)[C@H](O)[C@@H](O)[C@H]1O (stereo partly drawn) [D-(+)-Galactose] |  |  | collision cross section (N2) ([M+Na]+): 142.1 Å² |
| O=C(O)[C@@H](O)[C@@H](O)[C@H](O)[C@@H](O)C(=O)O [D-Glucarate] | 130.5 Å² and 130.92 Å² |  |  |
| Nc1nc(=O)c2nc([C@H](O)[C@H](O)CO)cnc2[nH]1 [D-Neopterin] | 150.31 Å² | 157.1 |  |
| NCCC[C@@H](N)C(=O)O [D-Ornithine] | 126.74 Å² |  |  |
| O=C(CO)[C@H](O)[C@H](O)COP(=O)(O)O [D-Ribulose 5-phosphate] |  |  | collision cross section (N2) ([M+Na]+): 148.8 Å² |
| N[C@H]1C(O)O[C@H](COP(=O)(O)O)[C@@H](O)[C@@H]1O (stereo partly drawn) [D-glucosamine 6-phosphate] |  |  | collision cross section (N2) ([M+Na]+): 156.6 Å² |
| C[C@H](CCC(=O)O)[C@H]1CC[C@H]2[C@@H]3CC[C@@H]4C[C@H](O)CC[C@]4(C)[C@H]3C[C@H](O)[C@]12C [Deoxycholic acid] | 200.7 Å² |  |  |
| Nc1ccn([C@H]2C[C@H](O)[C@@H](COP(=O)(O)OP(=O)(O)OP(=O)(O)O)O2)c(=O)n1 [Deoxycytidine 5'-triphosphate] | 176.92 Å² |  |  |
| Nc1nc(=O)c2ncn([C@H]3C[C@H](O)[C@@H](COP(=O)(O)OP(=O)(O)OP(=O)(O)O)O3)c2[nH]1 [Deoxyguanosine triphosphate] | 189.26 Å² |  |  |
| Cc1cn([C@H]2C[C@H](O)[C@@H](COP(=O)(O)O)O2)c(=O)[nH]c1=O [Deoxythymidine 5'-phosphate] |  |  | collision cross section (N2) ([M+Na]+): 173.1 Å² |
| CC(C)=CCC[C@@H](C)[C@H]1CC[C@H]2[C@@H]3CC=C4C[C@@H](O)CC[C@]4(C)[C@H]3CC[C@]12C [Desmosterol] | 210.05 Å² |  | collision cross section (N2) ([M+H-H2O]+): 199.4 Å² |
| CCCCCCCC/C=C\CCCCCCCCCCCC(=O)O [Erucic acid] | 188.5 Å² |  |  |
| Cc1cc2nc3c(=O)[nH]c(=O)nc-3n(C[C@H](O)[C@H](O)[C@H](O)COP(=O)(O)OP(=O)(O)OC[C@H]3O[C@@H](n4cnc5c(N)ncnc54)[C@H](O)[C@@H]3O)c2cc1C [Flavin adenine dinucleotide] |  | 247.3 |  |
| CC(C)=CCC/C(C)=C/COP(=O)(O)OP(=O)(O)O [Geranyl diphosphate] |  |  | collision cross section (N2) ([M-H2O-H]-): 161.5 Å² |
| CC(C)(COP(=O)(O)OP(=O)(O)OC[C@H]1O[C@@H](n2cnc3c(N)ncnc32)[C@H](O)[C@@H]1OP(=O)(O)O)[C@@H](O)C(=O)NCCC(=O)NCCSC(=O)CCCC(=O)O [Glutaryl-CoA] | 252.39 Å² | 260.5 |  |
| CC(C)C[C@H](NC(=O)CN)C(=O)O [Glycyl-L-leucine] | 142.07 Å² | 149.5 |  |
| Nc1nc(=O)c2ncn([C@@H]3O[C@H](COP(=O)(O)O)[C@@H](O)[C@H]3O)c2[nH]1 [Guanosine 5'-monophosphate] |  | 178.9 |  |
| CCCCCCCCCCCCCCCCC(=O)O [Heptadecanoic acid] | 170.78 Å² |  |  |
| CCCCCC(=O)NCC(=O)O [Hexanoylglycine] | 144.64 Å² |  |  |

| Compound | collision cross section (N2) ([M-H]-) | collision cross section (N2) ([M+H]+) [Å²] | also measured |
| --- | --- | --- | --- |
| O=C(O)Cc1cc(O)ccc1O [Homogentisic acid] |  |  | collision cross section (N2) ([M+H-H2O]+): 135.9 Å² |
| CN(C)CCc1ccc(O)cc1 [Hordenine] | 143.21 Å² | 137.8 |  |
| C=C(C)CCOP(=O)(O)OP(=O)(O)O [Isopentenyl pyrophosphate] | 141.71 Å² |  |  |
| NC(=O)NCCC[C@H](N)C(=O)O [L-Citrulline] |  | 138 |  |
| N[C@@H](CCSC[C@H](N)C(=O)O)C(=O)O [L-Cystathionine] | 139.51 Å² | 147 |  |
| O=C1O[C@H]([C@@H](O)CO)[C@H](O)[C@@H]1O [L-Gulonic gamma-lactone] | 131.6 Å² |  | collision cross section (N2) ([M+Na]+): 140.6 Å² |
| O=C(O)[C@@H]1CCCCN1 [L-Pipecolic acid] | 126.71 Å² | 127.4 |  |
| N[C@@H](CCCCN[C@@H](CCC(=O)O)C(=O)O)C(=O)O [L-Saccharopine] |  | 159.8 | collision cross section (N2) ([M+2Na-3H]-): 163.17 Å² |
| N[C@@H](CCS(=O)(=O)O)C(=O)O [L-homocysteic acid] |  | 140.3 | collision cross section (N2) ([M+Na-2H]-): 132.56 Å² |
| CC(C)CCC[C@@H](C)[C@H]1CC[C@H]2C3=CC[C@H]4C[C@@H](O)CC[C@]4(C)[C@H]3CC[C@]12C [Lathosterol] |  |  | collision cross section (N2) ([M+H-H2O]+): 204.5 Å² |
| NC(=O)CCCCC1CCSS1 (stereo not drawn) [Lipoamide] |  |  | collision cross section (N2) ([M+Na]+): 150.5 Å² |
| O=P(O)(O)OC[C@H]1OC(O)[C@@H](O)[C@@H](O)[C@@H]1O (stereo partly drawn) [Mannose-6-phosphate] |  |  | collision cross section (N2) ([M+Na]+): 155.8 Å² |
| C[N+](C)(C)CCCC[C@H](N)C(=O)[O-] [N6,N6,N6-Trimethyl-L-lysine] |  | 142 |  |
| CNCCCC[C@H](N)C(=O)O [N6-Methyl-L-lysine] | 134.21 Å² | 132.5 |  |
| CC(=O)NCCCCCN [N-Acetylcadaverine] | 131.77 Å² | 132.9 |  |
| CC(=O)N[C@H]1C(OP(=O)(O)O)O[C@H](CO)[C@@H](O)[C@@H]1O (stereo partly drawn) [N-Acetylglucosamine 1-phosphate] | 156.42 Å² |  | collision cross section (N2) ([M+Na]+): 166.6 Å² |
| CC(=O)N[C@@H]1C(O)O[C@H](CO)[C@@H](O)[C@@H]1O (stereo partly drawn) [N-Acetylmannosamine] |  |  | collision cross section (N2) ([M+Na]+): 149.9 Å² |
| CCCCCCCCCCCCC/C=C/[C@@H](O)[C@H](CO)NC(=O)CCCCCCCCCCCCCCCCC [N-Stearoylsphingosine] | 248.67 Å² |  | collision cross section (N2) ([M+Na]+): 256.4 Å² |
| CN(C)C(N)=NCCC[C@H](N)C(=O)O [NG,NG-dimethyl-L-arginine] |  | 143.5 |  |
| CCCCCCCC/C=C\CCCCCCCCCCCCCC(=O)O [Nervonic acid] | 196.32 Å² |  | collision cross section (N2) ([M+H-H2O]+): 196.8 Å² |
| NC(=O)c1ccc[n+]([C@@H]2O[C@H](COP(=O)([O-])OP(=O)(O)OC[C@H]3O[C@@H](n4cnc5c(N)ncnc54)[C@H](O)[C@@H]3O)[C@@H](O)[C@H]2O)c1 [Nicotinamide adenine dinucleotide (NAD)] |  | 226.7 |  |

Second part, led by results:

| collision cross section (N2) ([M-H]-) | collision cross section (N2) ([M+H]+) [Å²] | Compound | also measured |
| --- | --- | --- | --- |
| 138.18 Å² |  | COc1cc(/C=C/CO)ccc1O [Coniferol] | collision cross section (N2) ([M+H-H2O]+): 128.6 Å² |
| 129.77 Å² |  | OCC1(O)OC[C@@H](O)[C@H](O)[C@@H]1O (stereo partly drawn) [D-Tagatose] | collision cross section (N2) ([M+Na]+): 139 Å² |
| 127.73 Å² | 129.9 | Cc1cc2nc[nH]c2cc1C [Dimethylbenzimidazole] |  |
| 196.26 Å² | 196.9 | Nc1nc(=O)c2c([nH]1)NCC(CNc1ccc(C(=O)N[C@@H](CCC(=O)O)C(=O)O)cc1)N2C=O (stereo partly drawn) [Folinic acid] |  |
| 127.28 Å² |  | O=CNc1ccccc1C(=O)O [Formylanthranilic acid] | collision cross section (N2) ([M+H-H2O]+): 125.7 Å² |
|  | 157.7 | N[C@@H](CCC(=O)N[C@@H](CS)C(=O)O)C(=O)O [Gamma-Glutamylcysteine] |  |
| 122.67 Å² |  | O=C(O)c1cc(O)ccc1O [Gentisic acid] |  |
| 120.08 Å² |  | O=C(O)CCCC(=O)O [Glutaric acid] |  |
| 134.59 Å² | 136.4 | NCC(=O)N1CCCC1C(=O)O (stereo not drawn) [Glycylproline] |  |
| 126.06 Å² |  | CC(C)C[C@H](O)C(=O)O [Hydroxyisocaproic acid] |  |
| 134.53 Å² |  | O=C(O)/C=C/c1c[nH]c2ccccc12 [Indole-3-acrylic acid] |  |
| 138.82 Å² |  | O=C(O)C(=O)Cc1c[nH]c2ccccc12 [Indole-3-pyruvic acid] |  |
|  | 164.9 | N[C@@H](CC(=O)O)C(=O)N[C@@H](Cc1ccccc1)C(=O)O [L-Aspartyl-L-phenylalanine] | collision cross section (N2) ([M+Na-2H]-): 162.34 Å² |
| 149.72 Å² | 151 | NCCC(=O)N[C@@H](Cc1cnc[nH]1)C(=O)O [L-Carnosine] |  |
|  | 149.1 | Nc1ccccc1C(=O)C[C@H](N)C(=O)O [L-Kynurenine] |  |
|  | 130.6 | O=C1CC[C@@H](C(=O)O)N1 [L-Pyroglutamic acid] |  |
| 149.44 Å² |  | CC(=O)N[C@@H](Cc1ccc(O)cc1)C(=O)O [N-Acetyl-L-tyrosine] | collision cross section (N2) ([M+Na]+): 154.5 Å² |
| 148.65 Å² | 149.8 | CC(=O)NCCc1c[nH]c2ccc(O)cc12 [N-Acetylserotonin] |  |
|  | 164.8 | O=C(O)c1ccc[n+]([C@@H]2O[C@H](COP(=O)(O)O)[C@@H](O)[C@H]2O)c1 [Nicotinate D-ribonucleotide] |  |
